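Tested at 5 concentrations; 48 h exposure; 96-well plates; endpoints linearly interpolated, else capped at highest concentration. Abbreviation: GI50, concentration required for 50% inhibition of growth.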 Active and inactive are the calls of the source. No stated cut-off is given here; in the data, active = GI50 up to about 1.1 µM and inactive = higher.
How the values were obtained:
Assay in all cases: growth of human tumour cells (NCI), 48 h
CCRF-CEM = test system: CCRF-CEM
SNB-75 = test system: SNB-75
SK-MEL-2 = test system: SK-MEL-2
SN12C = test system: SN12C
UO-31 = test system: UO-31
HOP-92 = test system: HOP-92
SNB-19 = test system: SNB-19
HCC 2998 = test system: HCC 2998
Malme-3M = test system: Malme-3M
786-0 = test system: 786-0
KM12 = test system: KM12
RXF 393 = test system: RXF 393
SF-539 = test system: SF-539
OVCAR-3 = test system: OVCAR-3
LXFL 529 = test system: LXFL 529
HCT-116 = test system: HCT-116
A498 = test system: A498
SF-295 = test system: SF-295
MCF7 = test system: MCF7
MDA-MB-435 = test system: MDA-MB-435

Structure (SMILES)	GI50 (CCRF-CEM)	GI50 (SNB-75)	GI50 (SK-MEL-2)	GI50 (SN12C)	GI50 (UO-31)	GI50 (HOP-92)	GI50 (SNB-19)	GI50 (HCC 2998)	GI50 (Malme-3M)	GI50 (786-0)	GI50 (KM12)	GI50 (RXF 393)	GI50 (SF-539)	GI50 (OVCAR-3)	GI50 (LXFL 529)	GI50 (HCT-116)	GI50 (A498)	GI50 (SF-295)	GI50 (MCF7)	GI50 (MDA-MB-435)
C/C(CCn1[nH]c(=O)ccc1=O)=N\Nc1ccc([N+](=O)[O-])cc1[N+](=O)[O-]	> 100 µM (inactive)	> 100 µM (inactive)	> 100 µM (inactive)	> 100 µM (inactive)	12.7 µM (inactive)	> 100 µM (inactive)	> 100 µM (inactive)	> 100 µM (inactive)	> 100 µM (inactive)	> 100 µM (inactive)	33.5 µM (inactive)	> 100 µM (inactive)	95.5 µM (inactive)	> 100 µM (inactive)	14.6 µM (inactive)	> 100 µM (inactive)	> 100 µM (inactive)	20.5 µM (inactive)		
O=C1c2ccc3c4ccccc4n(-c4ccccc4)c3c2C(=O)N1c1ccc(Cl)cc1	> 100 µM (inactive)	> 100 µM (inactive)	> 100 µM (inactive)	> 100 µM (inactive)	> 100 µM (inactive)	37.3 µM (inactive)	> 100 µM (inactive)	> 100 µM (inactive)	> 100 µM (inactive)	> 100 µM (inactive)	> 100 µM (inactive)	> 100 µM (inactive)	> 100 µM (inactive)	> 100 µM (inactive)	> 100 µM (inactive)	> 100 µM (inactive)	> 100 µM (inactive)	> 100 µM (inactive)		
COC(=O)c1cc2c(nc1C)-c1ccccc1OS2(=O)=O	> 100 µM (inactive)	17.9 µM (inactive)		> 100 µM (inactive)	> 100 µM (inactive)	24.6 µM (inactive)	81.3 µM (inactive)	> 100 µM (inactive)	> 100 µM (inactive)	70 µM (inactive)	> 100 µM (inactive)	32.6 µM (inactive)	54.5 µM (inactive)	> 100 µM (inactive)	> 100 µM (inactive)	> 100 µM (inactive)	> 100 µM (inactive)	43.1 µM (inactive)		
CSc1nc2c(c(O)c(C)c(=O)n2C2OC(COC(C)=O)C(OC(C)=O)C(OC(C)=O)C2OC(C)=O)c(=O)n1C (stereo unspecified)	> 100 µM (inactive)	> 100 µM (inactive)	> 100 µM (inactive)	> 100 µM (inactive)	> 77.4 µM (inactive)	> 100 µM (inactive)	> 100 µM (inactive)	> 100 µM (inactive)	> 100 µM (inactive)	> 100 µM (inactive)	> 100 µM (inactive)	> 100 µM (inactive)	> 100 µM (inactive)	> 100 µM (inactive)	> 100 µM (inactive)	> 100 µM (inactive)	> 100 µM (inactive)	> 100 µM (inactive)		
O=C1c2ccccc2C(=O)c2sc(Nc3ccc(Cl)c(Cl)c3)nc21	1.85 µM (inactive)	8.05 µM (inactive)	8.26 µM (inactive)	1.83 µM (inactive)	2.12 µM (inactive)	13.3 µM (inactive)	6.04 µM (inactive)	15.3 µM (inactive)	4.16 µM (inactive)	1.82 µM (inactive)	7.83 µM (inactive)	7.4 µM (inactive)	4.38 µM (inactive)	2.49 µM (inactive)	1.82 µM (inactive)	3 µM (inactive)	16.6 µM (inactive)	15.2 µM (inactive)		
CN1CC(=O)N(C)c2[nH]cnc2C1=O	> 100 µM (inactive)	> 100 µM (inactive)		> 100 µM (inactive)	> 100 µM (inactive)		> 100 µM (inactive)	> 100 µM (inactive)	> 100 µM (inactive)	> 100 µM (inactive)	> 100 µM (inactive)	> 100 µM (inactive)	> 100 µM (inactive)	> 100 µM (inactive)	> 100 µM (inactive)		> 100 µM (inactive)	> 100 µM (inactive)		
Cc1ccc(NC(=O)C2C3C=CC(O3)C2C(=O)O)cc1 (stereo unspecified)	83.9 µM (inactive)	> 100 µM (inactive)	> 100 µM (inactive)	> 100 µM (inactive)	> 100 µM (inactive)	> 100 µM (inactive)	> 100 µM (inactive)	> 100 µM (inactive)	> 100 µM (inactive)	53.3 µM (inactive)		23.6 µM (inactive)	> 100 µM (inactive)	> 100 µM (inactive)	> 100 µM (inactive)	> 100 µM (inactive)	> 100 µM (inactive)	> 100 µM (inactive)		
CC1(C)C(c2ccccc2)C12CCC1(C2=O)C(c2ccccc2)C1(C)C (stereo unspecified)	18.9 µM (inactive)	30.4 µM (inactive)	19.7 µM (inactive)	27.1 µM (inactive)	19.9 µM (inactive)	11.7 µM (inactive)	28.8 µM (inactive)	18.4 µM (inactive)	26.7 µM (inactive)	25.2 µM (inactive)	> 10 µM (inactive)	20.1 µM (inactive)	26.8 µM (inactive)	19.9 µM (inactive)	31.5 µM (inactive)	16.6 µM (inactive)	34.6 µM (inactive)	19.4 µM (inactive)		
CN(C)c1ccc(Cc2cc(C(C)(C)C)cc(C(C)(C)C)c2O)cc1	60.1 µM (inactive)	31.2 µM (inactive)	6.87 µM (inactive)	16.1 µM (inactive)	17.2 µM (inactive)		21.6 µM (inactive)	19.6 µM (inactive)	22.5 µM (inactive)	18.5 µM (inactive)	12.2 µM (inactive)	16.4 µM (inactive)	20.8 µM (inactive)		15.2 µM (inactive)	13.2 µM (inactive)	18.2 µM (inactive)	18.9 µM (inactive)		
c1ccc([B-]23Oc4ccccc4[NH+]2c2ccccc2O3)cc1 (stereo unspecified)	29.6 µM (inactive)	> 100 µM (inactive)		> 100 µM (inactive)		> 100 µM (inactive)	> 100 µM (inactive)		> 100 µM (inactive)	> 100 µM (inactive)	77.6 µM (inactive)	> 100 µM (inactive)	> 100 µM (inactive)	56.6 µM (inactive)	63.8 µM (inactive)	> 100 µM (inactive)	> 100 µM (inactive)	> 100 µM (inactive)		
CC1(C)O[C@H]2[C@H](O)C[C@](O)(CO)C[C@H]2O1		48.2 µM (inactive)	> 100 µM (inactive)	> 100 µM (inactive)	> 100 µM (inactive)	> 100 µM (inactive)	> 100 µM (inactive)		> 100 µM (inactive)	> 100 µM (inactive)	> 100 µM (inactive)	> 100 µM (inactive)	> 100 µM (inactive)	> 100 µM (inactive)	> 100 µM (inactive)	> 100 µM (inactive)		> 100 µM (inactive)		
O=C1[C@@H](c2ccc(Cl)cc2)[C@H]2CC=C[C@H]2N1O	51.2 µM (inactive)	> 100 µM (inactive)	> 100 µM (inactive)	> 100 µM (inactive)	89.7 µM (inactive)		> 100 µM (inactive)	52.8 µM (inactive)	> 100 µM (inactive)	> 100 µM (inactive)	> 100 µM (inactive)	14.3 µM (inactive)	> 100 µM (inactive)	> 100 µM (inactive)	> 100 µM (inactive)			> 100 µM (inactive)		
CC(C)CC(=O)N1CCN(C(=O)CC(C)C)c2ccccc21	> 100 µM (inactive)	> 100 µM (inactive)	> 100 µM (inactive)		> 100 µM (inactive)	> 100 µM (inactive)	> 100 µM (inactive)	> 100 µM (inactive)	> 100 µM (inactive)	> 100 µM (inactive)	> 100 µM (inactive)	> 100 µM (inactive)	> 100 µM (inactive)	> 100 µM (inactive)	> 100 µM (inactive)	> 100 µM (inactive)	> 100 µM (inactive)	> 100 µM (inactive)		
CC1=C2C(c3ccccc3)(c3ccccc3)C3C=CC2(C=N3)N(C(=O)NC2CCCCC2)C1=O (stereo unspecified)	16.5 µM (inactive)			17.6 µM (inactive)	14.3 µM (inactive)	13.4 µM (inactive)	17.6 µM (inactive)	17.9 µM (inactive)	17.4 µM (inactive)	15.4 µM (inactive)	18.1 µM (inactive)		15.9 µM (inactive)	14.8 µM (inactive)	16.6 µM (inactive)	16 µM (inactive)	17.5 µM (inactive)	16.9 µM (inactive)		
O=[N+]([O-])c1c(/C=N/c2ccccc2)oc(-c2ccc3c(c2)OCO3)c1-c1ccc2c(c1)OCO2		50.2 µM (inactive)		> 100 µM (inactive)	9.29 µM (inactive)	65.6 µM (inactive)	> 100 µM (inactive)	> 100 µM (inactive)	> 100 µM (inactive)	> 100 µM (inactive)	> 100 µM (inactive)	> 100 µM (inactive)	> 100 µM (inactive)	> 100 µM (inactive)	> 100 µM (inactive)	> 100 µM (inactive)		> 100 µM (inactive)		
COC(=O)c1ccc(O)c2nc3c(C=O)c(O)cc(O)c3nc12 [LOMOFUNGIN]	0.259 µM (active)	1.78 µM (inactive)	2.9 µM (inactive)	0.499 µM (active)	0.225 µM (active)	1.2 µM (inactive)	1.9 µM (inactive)	4.93 µM (inactive)	2.07 µM (inactive)	1.73 µM (inactive)	1.3 µM (inactive)	7.18 µM (inactive)	0.0585 µM (active)	4.65 µM (inactive)		0.0977 µM (active)	1.22 µM (inactive)	0.0441 µM (active)	0.369 µM (active)	0.935 µM (active)

From ChEMBL document CHEMBL1201862, “PubChem BioAssay data set” (2004)
